Source: patent US8039505B2, “Compounds for modulating T-cells” (University of Utah Research Foundation, priority 2007, dated 2011)
Like-named read-outs stand apart in the source and are kept apart here.

Assay: Pharmacokinetics in male Swiss Albino mouse, intravenous and oral (LC-MS/MS of plasma)
Assay type: in vivo
Protocol: The pharmacokinetics of 1H-indole-3-carbaldehyde quinolin-8-ylhydrazone (Compound C3) was evaluated following intravenous (3 mg/kg) and oral (15 mg/kg) solution administration of 1H-indole-3-carbaldehyde quinolin-8-ylhydrazone in male Swiss Albino mouse. The effect of the Test Item, 1H-indole-3-carbaldehyde quinolin-8-ylhydrazone on complete blood count (CBC) was also evaluated. Pharmacokinetic phase consisted of two groups, Group 1 and Group 2. Animals in Group 1 were given intravenous bolus dose in a vehicle containing 5% N,N-dimethylacetamide, 5% CREMOPHOR™ EL and 90% Dextrose solution (5% w/v) and those in Group 2 were given oral solution dose in a vehicle, the composition of which was same as that of intravenous formulation. In addition, the effect of Test Item on complete blood count was evaluated following intravenous and oral dose administration along with its vehicle controls. A total of four groups were used each with 6 mice.
From the pharmacokinetic group, predose samples were collected from 3 animals in each group. Following dose administration terminal blood samples were collected at each of the following time points (in triplicate): 0.083 (only for intravenous), 0.25, 0.5, 1, 2, 4, 8, 12 and 24 hours. At each time point, approximately 500 μL of whole blood was withdrawn from the retro orbital sinus and collected in labeled tubes containing dipotassium EDTA as anticoagulant (20 μL of 200 mM K2 EDTA solution per mL of blood). Plasma was separated by centrifuging the whole blood at about 2500 g for 10 minutes at 4° C. within 1 h of sample collection. Separated plasma was stored below minus 50° C. until bioanalysis. A sensitive LC-MS/MS method was used for the quantitation of 1H-indole-3-carbaldehyde quinolin-8-ylhydrazone. The lower limit of quantitation was 1.04 ng/mL. For CBC evaluation, approximately 500 μL of blood was collected in labeled tubes containing dipotassium EDTA as anticoagulant (10 […]/mL of blood) after 48 h of dose administration from all animals.
A total of 57 mice were divided into an intravenous dose group of 30 mice (Group 1) and oral dose group of 27 mice (Group 2). Animals in Group 1 received intravenous bolus dose via tail vein at 3 mg/kg and animals in Group 2 received oral solution dose via gavage at 15 mg/kg. Three animals were administered the dose for each time point (intravenous: 10 time points; Oral: 9 time points). Terminal blood samples were collected from each mouse under light ether anesthesia and plasma was separated.
Animals in Group 1 were administered an intravenous bolus dose via the tail vein (dosing volume: 6 mL/kg). Animals in Group 2 received oral dose by gavage with an oral dosing needle (dosing volume: 10 mL/kg). Animals in the CBC evaluation group were treated same as above except the animals in control group received vehicle instead of formulation.
Pharmacokinetic group: Predose samples were collected from 3 animals in each group. Following dose administration terminal blood samples were collected at each of the following time points (in triplicate): 0.083 (only for intravenous), 0.25, 0.5, 1, 2, 4, 8, 12 and 24 hours. For each time point, approximately 500 μL of whole blood was withdrawn from the retro orbital sinus and collected in labeled tubes containing dipotassium EDTA as anticoagulant (20 μL of 200 mM K2 EDTA solution per mL of blood). Plasma was separated by centrifuging the whole blood at about 2500 g for 10 minutes at 4° C. within 1 h of sample collection. Separated plasma was stored below minus 50° C. until bioanalysis.
An LC-MS/MS method was developed and employed for the quantitation of 1H-indole-3-carbaldehyde quinolin-8-ylhydrazone in the mouse plasma samples. The samples were prepared for analysis following liquid-liquid extraction using amodiaquin as internal standard. The lower limit of quantitation was 1.04 ng/mL.
Pharmacokinetic parameters were calculated using non-compartmental analysis tool of WINNONLIN™ Enterprise software (Version 5.1.1). […]

[1] = male, Swiss Albino, mouse, plasma, iv, 3 mg/kg, mouse, intravenous bolus 3 mg/kg, N = 3, read-out: Mean plasma concentration
[2] = male, Swiss Albino, mouse, plasma, iv, 3 mg/kg, mouse, intravenous bolus 3 mg/kg, individual mice, LLOQ 1.04 ng/mL, read-out: Individual plasma concentration
[3] = male, Swiss Albino, mouse, plasma, oral, 15 mg/kg, mouse, oral solution 15 mg/kg, N = 3, read-out: Mean plasma concentration
[4] = male, Swiss Albino, plasma, mouse, IV 3 mg/kg
[5] = male, Swiss Albino, plasma, mouse, oral solution 15 mg/kg

## C(=NNc1cccc2cccnc12)c1c[nH]c2ccccc12 [Compound C3, 1H-indole-3-carbaldehyde quinolin-8-ylhydrazone]
male, Swiss Albino, mouse, plasma, iv, 3 mg/kg, intravenous bolus 3 mg/kg, N = 3
  concentration at 0.5 h: 292 ng/mL
male, Swiss Albino, mouse, plasma, iv, 3 mg/kg, mouse plasma, IV 3 mg/kg, 0.083 h sample, read-out: Initial conc. (repeat analysis)
  concentration at 0.083 h: 47.3 ng/mL
male, Swiss Albino, mouse, plasma, iv, 3 mg/kg, mouse plasma, IV 3 mg/kg, 0.083 h sample, read-out: Repeated conc. (repeat analysis)
  concentration at 0.083 h: 75.6 ng/mL
male, Swiss Albino, mouse, plasma, iv, 3 mg/kg, mouse plasma, IV 3 mg/kg, 0.25 h samples, read-out: Initial conc. (repeat analysis)
  concentration at 0.25 h: 130 ng/mL
male, Swiss Albino, mouse, plasma, iv, 3 mg/kg, mouse plasma, IV 3 mg/kg, 0.25 h samples, read-out: Repeated conc. (repeat analysis)
  concentration at 0.25 h: 200 ng/mL
male, Swiss Albino, mouse, plasma, iv, 3 mg/kg, mouse, IV 3 mg/kg, read-out: T1/2 (converted)
  half-life: 1.67 h
male, Swiss Albino, mouse, plasma, iv, 3 mg/kg, mouse, following intravenous administration 3 mg/kg, read-out: Half-life (converted)
  half-life: ~1.7 h
male, Swiss Albino, mouse, plasma, iv, 3 mg/kg, mouse, intravenous bolus 3 mg/kg, 0.083 h, N = 2, read-out: Mean plasma concentration
  concentration at 0.083 h: 1690 ng/mL
male, Swiss Albino, mouse, plasma, iv, 3 mg/kg, mouse, intravenous bolus 3 mg/kg, 0.25 h, N = 3, read-out: Mean plasma concentration
  concentration at 0.25 h: 244 ng/mL
male, Swiss Albino, mouse, plasma, iv, 3 mg/kg, mouse, intravenous bolus 3 mg/kg, 0.25 h, individual mice, LLOQ 1.04 ng/mL, read-out: Individual plasma concentration
  concentration at 0.25 h: 200 ng/mL
[1]
  concentration at 1 h: 147 ng/mL
  concentration at 2 h: 65.2 ng/mL
  concentration at 4 h: 35.9 ng/mL
  concentration at 8 h: 8.95 ng/mL
  concentration at 12 h: 1.29 ng/mL
[2]
  concentration at 1 h: 116 ng/mL
  concentration at 2 h: 71.9 ng/mL
  concentration at 4 h: 42.4 ng/mL
  concentration at 8 h: 10.1 ng/mL
male, Swiss Albino, mouse, plasma, iv, 3 mg/kg, mouse, intravenous bolus 3 mg/kg, individual mice, BLQ = below LLOQ 1.04 ng/mL, read-out: Individual plasma concentration
  concentration at 12 h: 1.68 ng/mL
male, Swiss Albino, mouse, plasma, oral, 15 mg/kg, mouse, oral 15 mg/kg vs IV 3 mg/kg, read-out: F, absolute oral solution bioavailability
  bioavailability: ~26%
male, Swiss Albino, mouse, plasma, oral, 15 mg/kg, mouse, oral solution 15 mg/kg, 0.25 h, N = 3, read-out: Mean plasma concentration
  concentration at 0.25 h: 140 ng/mL
[3]
  concentration at 1 h: 199 ng/mL
  concentration at 2 h: 96.5 ng/mL
  concentration at 4 h: 146 ng/mL
  concentration at 8 h: 75.3 ng/mL
  concentration at 12 h: 8.91 ng/mL
male, Swiss Albino, mouse, plasma, oral, 15 mg/kg, mouse, oral solution 15 mg/kg, individual mice, LLOQ 1.04 ng/mL, read-out: Individual plasma concentration
  concentration at 8 h: 76.7 ng/mL
male, Swiss Albino, mouse, plasma, oral, 15 mg/kg, oral solution 15 mg/kg, N = 3
  concentration at 0.5 h: 148 ng/mL
male, Swiss Albino, mouse, plasma, po, 15 mg/kg, mouse, oral solution 15 mg/kg, read-out: T1/2 (converted)
  half-life: 1.98 h
[4]
  AUC: 913 ng·h/mL
  AUC(0-t): 909 ng·h/mL
  Cmax: 1690 ng/mL
  clearance: 54.8 mL/min/kg
male, Swiss Albino, plasma, mouse, IV 3 mg/kg, first sampling point
  Tmax: 0.083 h
male, Swiss Albino, plasma, mouse, IV 3 mg/kg, read-out: Vds. (volume of distribution)
  Vd: 4.28 L/kg
[5]
  AUC: 1170 ng·h/mL
  AUC(0-t): 1140 ng·h/mL
  Cmax: 199 ng/mL
  Tmax: 1 h
Mouse plasma, IV 3 mg/kg, 0.083 h sample
  Accepted conc. (repeat analysis): 75.62 c ng/mL
